According to article PMC10916743 (RSC Advances, 2024):
Where “and” joins values, the source holds several entries; their conditions need not be identical. Equal entries are not always repeated.

Tests used:
HepG2 cell line = experiment: MTT cytotoxicity assay, HepG2; type: cell-based; conditions: for IC50: Homo sapiens, HepG2, read-out: IC50 HepG2; for Selectivity index: fold more toxic against HepG2 than VERO cells: VERO IC50 / HepG2 IC50
MCF-7 cell line = experiment: MTT cytotoxicity assay, MCF-7; type: cell-based; conditions: for IC50: Homo sapiens, MCF7, read-out: IC50 MCF-7; for Selectivity index: fold more toxic in MCF-7 than in VERO cells: VERO IC50 / MCF-7 IC50
HCT116 cell line = experiment: MTT cytotoxicity assay, HCT116; type: cell-based; conditions: for IC50: Homo sapiens, HCT-116, read-out: IC50 HCT116; for Selectivity index: fold grander lethalness in HCT116 than in VERO cells: VERO IC50 / HCT116 IC50
A549 cell line = experiment: MTT cytotoxicity assay, A549; type: cell-based; conditions: for IC50: Homo sapiens, A549, read-out: IC50 A549; for Selectivity index: fold more toxicity in A549 than in VERO cells: VERO IC50 / A549 IC50
EGFR^WT = EGFR^WT (Homo sapiens, UniProt P00533); experiment: In vitro EGFR^WT kinase inhibitory assay; type: biochemical; conditions: mean ± SD of three separate experiments
EGFR^T790M = EGFR^T790M (Homo sapiens, UniProt P00533, T790M); experiment: In vitro EGFR^T790M kinase inhibitory assay; type: biochemical; conditions: HTRF kinase assay, mean ± SD of three separate experiments
Chain of EGFR^T790M (P00533 25-1210 T790M): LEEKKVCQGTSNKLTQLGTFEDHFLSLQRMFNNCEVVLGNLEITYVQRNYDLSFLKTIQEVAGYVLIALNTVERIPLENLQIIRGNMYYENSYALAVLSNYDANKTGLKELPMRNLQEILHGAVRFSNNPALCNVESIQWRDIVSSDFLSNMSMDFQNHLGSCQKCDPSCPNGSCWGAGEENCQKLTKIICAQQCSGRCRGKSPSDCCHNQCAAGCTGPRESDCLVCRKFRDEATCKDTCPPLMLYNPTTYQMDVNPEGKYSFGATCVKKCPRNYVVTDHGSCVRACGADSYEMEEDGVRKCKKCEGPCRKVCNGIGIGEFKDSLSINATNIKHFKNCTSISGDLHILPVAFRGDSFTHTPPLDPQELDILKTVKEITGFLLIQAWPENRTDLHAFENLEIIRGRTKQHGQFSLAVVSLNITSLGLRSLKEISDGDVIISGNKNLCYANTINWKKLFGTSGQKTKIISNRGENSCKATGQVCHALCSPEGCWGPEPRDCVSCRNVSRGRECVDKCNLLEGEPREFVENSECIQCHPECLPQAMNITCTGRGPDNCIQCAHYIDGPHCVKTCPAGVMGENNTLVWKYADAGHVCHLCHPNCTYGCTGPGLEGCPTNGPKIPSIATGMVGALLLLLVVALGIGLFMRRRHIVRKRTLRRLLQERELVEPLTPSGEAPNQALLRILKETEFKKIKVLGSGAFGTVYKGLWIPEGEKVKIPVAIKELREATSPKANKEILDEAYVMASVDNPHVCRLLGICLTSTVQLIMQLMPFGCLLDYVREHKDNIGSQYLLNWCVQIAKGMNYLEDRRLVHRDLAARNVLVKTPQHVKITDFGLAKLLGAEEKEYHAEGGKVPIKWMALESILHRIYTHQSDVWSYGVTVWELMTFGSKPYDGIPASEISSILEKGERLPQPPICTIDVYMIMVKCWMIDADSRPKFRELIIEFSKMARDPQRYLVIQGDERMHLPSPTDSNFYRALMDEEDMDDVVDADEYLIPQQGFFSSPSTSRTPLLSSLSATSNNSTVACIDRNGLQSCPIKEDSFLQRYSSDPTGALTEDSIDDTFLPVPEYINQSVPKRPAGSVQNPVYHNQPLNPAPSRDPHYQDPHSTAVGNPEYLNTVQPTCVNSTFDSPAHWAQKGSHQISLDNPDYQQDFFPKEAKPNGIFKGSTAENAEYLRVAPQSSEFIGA

Chain of EGFR^WT (P00533 25-1210): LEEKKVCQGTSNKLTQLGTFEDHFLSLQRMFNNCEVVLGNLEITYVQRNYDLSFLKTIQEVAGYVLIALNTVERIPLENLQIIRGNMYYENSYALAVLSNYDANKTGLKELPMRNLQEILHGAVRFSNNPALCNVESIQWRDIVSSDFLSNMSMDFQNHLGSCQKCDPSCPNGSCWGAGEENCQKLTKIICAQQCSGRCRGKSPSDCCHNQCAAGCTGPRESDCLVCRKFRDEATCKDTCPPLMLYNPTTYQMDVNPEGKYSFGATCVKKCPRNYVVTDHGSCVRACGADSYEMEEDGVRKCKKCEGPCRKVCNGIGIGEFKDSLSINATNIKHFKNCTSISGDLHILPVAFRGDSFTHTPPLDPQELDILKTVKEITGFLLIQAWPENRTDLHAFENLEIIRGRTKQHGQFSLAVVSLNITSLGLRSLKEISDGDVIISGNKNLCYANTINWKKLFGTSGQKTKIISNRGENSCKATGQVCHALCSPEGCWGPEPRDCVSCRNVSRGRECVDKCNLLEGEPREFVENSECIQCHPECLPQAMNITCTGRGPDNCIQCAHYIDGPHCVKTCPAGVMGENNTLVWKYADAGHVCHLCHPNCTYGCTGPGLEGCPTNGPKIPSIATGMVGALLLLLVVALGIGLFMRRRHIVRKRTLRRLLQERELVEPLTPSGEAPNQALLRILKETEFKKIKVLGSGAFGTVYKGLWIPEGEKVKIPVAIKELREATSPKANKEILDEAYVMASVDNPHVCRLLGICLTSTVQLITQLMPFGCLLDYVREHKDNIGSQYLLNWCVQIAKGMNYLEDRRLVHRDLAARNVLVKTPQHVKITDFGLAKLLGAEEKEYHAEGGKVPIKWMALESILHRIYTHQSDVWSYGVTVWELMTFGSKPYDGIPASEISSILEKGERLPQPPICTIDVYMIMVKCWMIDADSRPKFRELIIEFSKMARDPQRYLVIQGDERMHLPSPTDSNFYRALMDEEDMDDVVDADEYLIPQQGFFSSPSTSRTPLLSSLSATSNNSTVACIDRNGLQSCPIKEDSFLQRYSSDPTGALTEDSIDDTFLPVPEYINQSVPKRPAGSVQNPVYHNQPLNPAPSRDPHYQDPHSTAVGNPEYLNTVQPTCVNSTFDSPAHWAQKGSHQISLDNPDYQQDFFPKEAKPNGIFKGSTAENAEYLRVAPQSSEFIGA

Compound	IC50 (HepG2 cell line) [µM]	IC50 (MCF-7 cell line) [µM]	IC50 (HCT116 cell line) [µM]	IC50 (A549 cell line) [µM]	IC50 (EGFR^WT) [µM]	IC50 (EGFR^T790M)	Selectivity index: fold more toxic against HepG2 than VERO cells (HepG2 cell line) [fold]	Selectivity index: fold more toxic in MCF-7 than in VERO cells (MCF-7 cell line) [fold]	Selectivity index: fold grander lethalness in HCT116 than in VERO cells (HCT116 cell line) [fold]	Selectivity index: fold more toxicity in A549 than in VERO cells (A549 cell line) [fold]
C=CCn1c(=O)n(CC(=O)Nc2ccc(C(=O)NC)cc2)c(=O)c2cc(I)ccc21 [Compound 5a, 4-{2-[1-Allyl-6-iodo-2,4-dioxo-1,4-dihydroquinazolin-3(2H)-yl]acetamido}-N-methylbenzamide]	15 ± 1.5	13.2 ± 1	13.4 ± 1.5	10.6 ± 1.5	1.32 ± 0.25	1.62 ± 0.2 µM				
C=CCn1c(=O)n(CC(=O)Nc2ccc(C(=O)NCC)cc2)c(=O)c2cc(I)ccc21 [Compound 5b, 4-{2-[1-Allyl-6-iodo-2,4-dioxo-1,4-dihydroquinazolin-3(2H)-yl]acetamido}-N-ethylbenzamide]	12.5 ± 1	11.3 ± 1.1	11 ± 1.3	9.5 ± 1.5	1 ± 0.15	1.33 ± 0.1 µM				
C=CCn1c(=O)n(CC(=O)Nc2ccc(C(=O)OC)cc2)c(=O)c2cc(I)ccc21 [Compound 6a, Methyl 4-{2-[1-allyl-6-iodo-2,4-dioxo-1,4-dihydroquinazolin-3(2H)-yl]acetamido}benzoate]	13 ± 1.4	12.2 ± 1.7	12.1 ± 1.5	10.4 ± 1.5	1.15 ± 0.25	1.54 ± 0.5 µM				
C=CCn1c(=O)n(CC(=O)Nc2ccc(C(=O)OCC)cc2)c(=O)c2cc(I)ccc21 [Compound 6b, Ethyl 4-{2-[1-allyl-6-iodo-2,4-dioxo-1,4-dihydroquinazolin-3(2H)-yl]acetamido}benzoate]	11.6 ± 1.8	11 ± 1.6	9.79 ± 1.8	9.39 ± 1.5	0.95 ± 0.35	1.12 ± 0.5 µM				
C=CCn1c(=O)n(CC(=O)Nc2ccc(C(=O)NN)cc2)c(=O)c2cc(I)ccc21 [Compound 7, 2-[1-Allyl-6-iodo-2,4-dioxo-1,4-dihydroquinazolin-3(2H)-yl]-N-[4-(hydrazinecarbonyl)phenyl]acetamide]	16.5 ± 1.6	15.2 ± 1.9	15.2 ± 1.7	12.2 ± 1.5	1.5 ± 0.15	1.9 ± 0.5 µM				
C=CCn1c(=O)n(CC(=O)Nc2ccc(-c3nnc(S)o3)cc2)c(=O)c2cc(I)ccc21 [Compound 8, 2-(1-Allyl-6-iodo-2,4-dioxo-1,4-dihydroquinazolin-3(2H)-yl)-N-(4-(5-mercapto-1,3,4-oxadiazol-2-yl)phenyl)acetamide]	11.2 ± 1.9	10.8 ± 1.8	9.31 ± 1.8	9 ± 1.5	0.88 ± 0.35	0.96 ± 0.5 µM				
C=CCn1c(=O)n(CC(=O)Nc2ccc(-c3nnc(C)o3)cc2)c(=O)c2cc(I)ccc21 [Compound 9, 2-[1-Allyl-6-iodo-2,4-dioxo-1,4-dihydroquinazolin-3(2H)-yl]-N-[4-(5-methyl-1,3,4-oxadiazol-2-yl)phenyl]acetamide]	11 ± 1.4	10.4 ± 1.7	8.62 ± 1.5	7.06 ± 1.5	0.8 ± 0.25	0.89 ± 0.5 µM				
C=CCn1c(=O)n(CC(=O)Nc2ccc(-n3nc(C)cc3C)cc2)c(=O)c2cc(I)ccc21 [Compound 10, 2-[1-Allyl-6-iodo-2,4-dioxo-1,4-dihydroquinazolin-3(2H)-yl]-N-[4-(3,5-dimethyl-1H-pyrazol-1-yl)phenyl]acetamide]	7.35 ± 1	7.85 ± 0.9	6.96 ± 1.1	6.9 ± 1.5	0.38 ± 0.35	0.54 ± 0.5 µM	5.91	5.53	6.24	6.30
CNC(=O)c1ccc(NC(=O)Cn2c(=O)c3cc(I)ccc3n(Cc3ccccc3)c2=O)cc1 [Compound 13, 4-{2-[1-Benzyl-6-iodo-2,4-dioxo-1,4-dihydroquinazolin-3(2H)-yl]acetamido}-N-methylbenzamide]	8 ± 1.3	8.25 ± 1.1	7.36 ± 1.1	7.1 ± 1.1	0.5 ± 0.15	0.61 ± 0.1 µM	5.86	5.68	6.37	6.60
COC(=O)c1ccc(NC(=O)Cn2c(=O)c3cc(I)ccc3n(Cc3ccccc3)c2=O)cc1 [Compound 14a, Methyl 4-{2-[1-benzyl-6-iodo-2,4-dioxo-1,4-dihydroquinazolin-3(2H)-yl]acetamido}benzoate]	9 ± 1.2	8.35 ± 1.5	8.5 ± 1.1	7.87 ± 1.1	0.6 ± 0.35	0.75 ± 0.5 µM	5.58	6.01	5.91	6.38
CCOC(=O)c1ccc(NC(=O)Cn2c(=O)c3cc(I)ccc3n(Cc3ccccc3)c2=O)cc1 [Compound 14b, Ethyl 4-{2-[1-benzyl-6-iodo-2,4-dioxo-1,4-dihydroquinazolin-3(2H)-yl]acetamido}benzoate]	5.86 ± 1	7.03 ± 1.1	6.15 ± 1.5	5.77 ± 1.3	0.25 ± 0.35	0.36 ± 0.1 µM	8.39	6.99	7.99	8.52
NNC(=O)c1ccc(NC(=O)Cn2c(=O)c3cc(I)ccc3n(Cc3ccccc3)c2=O)cc1 [Compound 15, 2-[1-Benzyl-6-iodo-2,4-dioxo-1,4-dihydroquinazolin-3(2H)-yl]-N-[4-(hydrazinecarbonyl)phenyl]acetamide]	9.5 ± 1	8.8 ± 1	8.95 ± 1	8.18 ± 1	0.65 ± 0.15	0.8 ± 0.1 µM	5.49	5.92	5.82	6.37
O=C(Cn1c(=O)c2cc(I)ccc2n(Cc2ccccc2)c1=O)Nc1ccc(-c2nnc(S)o2)cc1 [Compound 16, 2-[1-Benzyl-6-iodo-2,4-dioxo-1,4-dihydroquinazolin-3(2H)-yl]-N-[4-(5-mercapto-1,3,4-oxadiazol-2-yl)phenyl]acetamide]	6.54 ± 1	7.36 ± 1	6.67 ± 1	6.2 ± 1	0.33 ± 0.25	0.4 µM and 0.43 µM	6.69	5.95	6.56	7.06
Cc1nnc(-c2ccc(NC(=O)Cn3c(=O)c4cc(I)ccc4n(Cc4ccccc4)c3=O)cc2)o1 [Compound 17, 2-[1-Benzyl-6-iodo-2,4-dioxo-1,4-dihydroquinazolin-3(2H)-yl]-N-[4-(5-methyl-1,3,4-oxadiazol-2-yl)phenyl]acetamide]	5.55 ± 0.7	6.85 ± 0.9	5.4 ± 1.5	5.11 ± 1.1	0.15 ± 0.35	0.3 ± 0.5 µM	8.31	6.73		
Cc1cc(C)n(-c2ccc(NC(=O)Cn3c(=O)c4cc(I)ccc4n(Cc4ccccc4)c3=O)cc2)n1 [Compound 18, 2-[1-Benzyl-6-iodo-2,4-dioxo-1,4-dihydroquinazolin-3(2H)-yl]-N-[4-(3,5-dimethyl-1H-pyrazol-1-yl)phenyl]acetamide]	5.25 ± 0.7	6.46 ± 0.9	5.68 ± 1.5	5.24 ± 1.1	0.17 ± 0.35	0.25 ± 0.5 µM	8.67	7.04		
